# Assay results published in PubChem BioAssay (NCI).
#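 In this assay, cells in 96-well plates receive the compound at five concentrations for 48 hours. Endpoints are linearly interpolated between the surrounding concentrations. GI50: concentration for 50% inhibition of growth. TGI marks complete inhibition of growth.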
# Columns and labels:
# Assay in all cases: NCI anticancer screen, dose series, 48 h
# COLO 205 colon = system: COLO 205 colon
# HCT-116 colon = system: HCT-116 colon
# SK-MEL-5 melanoma = system: SK-MEL-5 melanoma
# RXF 393 renal = system: RXF 393 renal
# MCF7 breast = system: MCF7 breast
# SK-MEL-2 melanoma = system: SK-MEL-2 melanoma
# SF-268 CNS = system: SF-268 CNS
# SW-620 colon = system: SW-620 colon
# HT29 colon = system: HT29 colon
# M14 melanoma = system: M14 melanoma
# CCRF-CEM leukemia = system: CCRF-CEM leukemia
# NCI-H23 lung = system: NCI-H23 lung
# A549 NSCLC = system: A549 NSCLC
# OVCAR-4 ovarian = system: OVCAR-4 ovarian
# UO-31 renal = system: UO-31 renal
# MDA-MB-231 breast = system: MDA-MB-231 breast
# SK-MEL-28 melanoma = system: SK-MEL-28 melanoma
# NCI/ADR-RES ovarian = system: NCI/ADR-RES ovarian
# HCC-2998 colon = system: HCC-2998 colon
# LOX IMVI melanoma = system: LOX IMVI melanoma
# U251 CNS = system: U251 CNS
# OVCAR-5 ovarian = system: OVCAR-5 ovarian
# K-562 leukemia = system: K-562 leukemia
# SN12C renal = system: SN12C renal
# OVCAR-8 ovarian = system: OVCAR-8 ovarian
# MDA-MB-435 = system: MDA-MB-435
# ACHN renal = system: ACHN renal
# RPMI-8226 leukemia = system: RPMI-8226 leukemia
# UACC-62 melanoma = system: UACC-62 melanoma
# PC-3 prostate = system: PC-3 prostate
# NCI-H460 lung = system: NCI-H460 lung
# TK-10 renal = system: TK-10 renal
# NCI-H522 lung = system: NCI-H522 lung
# CAKI-1 renal = system: CAKI-1 renal
# T-47D breast = system: T-47D breast
# HS 578T breast = system: HS 578T breast
# NCI-H226 lung = system: NCI-H226 lung
# 786-0 renal = system: 786-0 renal
# KM12 colon = system: KM12 colon
# A498 renal = system: A498 renal
# SK-OV-3 ovarian = system: SK-OV-3 ovarian
# HCT-15 colon = system: HCT-15 colon
# SNB-75 CNS = system: SNB-75 CNS
# SNB-19 CNS = system: SNB-19 CNS
# BT-549 breast = system: BT-549 breast
# EKVX NSCLC = system: EKVX NSCLC
# HOP-62 NSCLC = system: HOP-62 NSCLC
# MOLT-4 leukemia = system: MOLT-4 leukemia
# SF-539 CNS = system: SF-539 CNS
# SR leukemia = system: SR leukemia
# HL-60(TB) leukemia = system: HL-60(TB) leukemia
# MALME-3M melanoma = system: MALME-3M melanoma
# UACC-257 melanoma = system: UACC-257 melanoma
# HOP-92 NSCLC = system: HOP-92 NSCLC
# OVCAR-3 ovarian = system: OVCAR-3 ovarian
# DU-145 prostate = system: DU-145 prostate
# SF-295 CNS = system: SF-295 CNS
# IGROV1 ovarian = system: IGROV1 ovarian
smiles,measurement,setting,value
C#Cc1nc(/C=C\CCCCCCC(=O)NO)cs1,GI50,COLO 205 colon,1.9 µM
same,TGI,COLO 205 colon,3.82 µM
same,GI50,HCT-116 colon,2.01 µM
same,TGI,HCT-116 colon,7.74 µM
same,GI50,SK-MEL-5 melanoma,2.38 µM
same,TGI,SK-MEL-5 melanoma,6.69 µM
same,GI50,RXF 393 renal,1.72 µM
same,TGI,RXF 393 renal,4.14 µM
same,GI50,MCF7 breast,2.94 µM
same,TGI,MCF7 breast,> 100 µM
same,GI50,SK-MEL-2 melanoma,2.72 µM
same,TGI,SK-MEL-2 melanoma,8.53 µM
same,GI50,SF-268 CNS,2.84 µM
same,TGI,SF-268 CNS,7.64 µM
same,GI50,SW-620 colon,1.69 µM
same,TGI,SW-620 colon,4.2 µM
same,GI50,HT29 colon,2.6 µM
same,TGI,HT29 colon,7.5 µM
same,GI50,M14 melanoma,3.65 µM
same,TGI,M14 melanoma,19.9 µM
same,GI50,CCRF-CEM leukemia,0.329 µM
same,TGI,CCRF-CEM leukemia,11.6 µM
same,GI50,NCI-H23 lung,0.964 µM
same,TGI,NCI-H23 lung,2.39 µM
same,GI50,A549 NSCLC,2.94 µM
same,TGI,A549 NSCLC,11.4 µM
same,GI50,OVCAR-4 ovarian,2.05 µM
same,TGI,OVCAR-4 ovarian,5.77 µM
same,GI50,UO-31 renal,0.163 µM
same,TGI,UO-31 renal,0.318 µM
same,GI50,MDA-MB-231 breast,2.59 µM
same,TGI,MDA-MB-231 breast,6.25 µM
same,GI50,SK-MEL-28 melanoma,3.69 µM
same,TGI,SK-MEL-28 melanoma,30.1 µM
same,GI50,NCI/ADR-RES ovarian,0.861 µM
same,TGI,NCI/ADR-RES ovarian,5.83 µM
same,GI50,HCC-2998 colon,5.58 µM
same,TGI,HCC-2998 colon,18.1 µM
same,TGI,LOX IMVI melanoma,0.0231 µM
same,GI50,U251 CNS,1.86 µM
same,TGI,U251 CNS,3.96 µM
same,GI50,OVCAR-5 ovarian,2.63 µM
same,TGI,OVCAR-5 ovarian,11.5 µM
same,GI50,K-562 leukemia,2.1 µM
same,TGI,K-562 leukemia,> 100 µM
same,GI50,SN12C renal,4.02 µM
same,TGI,SN12C renal,> 100 µM
same,GI50,OVCAR-8 ovarian,2 µM
same,TGI,OVCAR-8 ovarian,8.77 µM
same,GI50,MDA-MB-435,2.75 µM
same,TGI,MDA-MB-435,11.8 µM
same,GI50,ACHN renal,2.33 µM
same,TGI,ACHN renal,6.46 µM
same,GI50,RPMI-8226 leukemia,1.54 µM
same,TGI,RPMI-8226 leukemia,4.96 µM
same,GI50,UACC-62 melanoma,1.35 µM
same,TGI,UACC-62 melanoma,3.29 µM
same,GI50,PC-3 prostate,3.41 µM
same,TGI,PC-3 prostate,20.1 µM
same,GI50,NCI-H460 lung,2.72 µM
same,TGI,NCI-H460 lung,16.4 µM
same,GI50,TK-10 renal,1.68 µM
same,TGI,TK-10 renal,6.36 µM
same,GI50,NCI-H522 lung,0.177 µM
same,TGI,NCI-H522 lung,0.352 µM
same,GI50,CAKI-1 renal,1.82 µM
same,TGI,CAKI-1 renal,4.27 µM
same,GI50,T-47D breast,1.62 µM
same,TGI,T-47D breast,4.24 µM
same,GI50,HS 578T breast,2 µM
same,TGI,HS 578T breast,8.41 µM
same,GI50,NCI-H226 lung,2.81 µM
same,TGI,NCI-H226 lung,9.71 µM
same,GI50,786-0 renal,0.376 µM
same,TGI,786-0 renal,12.6 µM
same,GI50,KM12 colon,3.25 µM
same,TGI,KM12 colon,11.8 µM
same,GI50,A498 renal,1.68 µM
same,TGI,A498 renal,3.3 µM
same,GI50,SK-OV-3 ovarian,2.49 µM
same,TGI,SK-OV-3 ovarian,7.44 µM
same,GI50,HCT-15 colon,3 µM
same,TGI,HCT-15 colon,13.4 µM
same,GI50,SNB-75 CNS,1.4 µM
same,TGI,SNB-75 CNS,4.27 µM
same,GI50,SNB-19 CNS,3.99 µM
same,TGI,SNB-19 CNS,23 µM
same,GI50,BT-549 breast,4.53 µM
same,TGI,BT-549 breast,42.5 µM
same,GI50,EKVX NSCLC,5.23 µM
same,TGI,EKVX NSCLC,> 100 µM
same,GI50,HOP-62 NSCLC,2.67 µM
same,TGI,HOP-62 NSCLC,11.4 µM
O=C(Nc1cc(Cl)cc(Cl)c1)Nc1ccc2oc(=O)ccc2c1,GI50,COLO 205 colon,2.19 µM
same,TGI,COLO 205 colon,4.63 µM
same,GI50,HCT-116 colon,2.31 µM
same,TGI,HCT-116 colon,8.7 µM
same,GI50,SK-MEL-5 melanoma,1.66 µM
same,TGI,SK-MEL-5 melanoma,3.11 µM
same,GI50,RXF 393 renal,2.57 µM
same,TGI,RXF 393 renal,6.72 µM
same,GI50,MCF7 breast,2.28 µM
same,TGI,MCF7 breast,8.09 µM
same,GI50,SK-MEL-2 melanoma,2.03 µM
same,TGI,SK-MEL-2 melanoma,4.84 µM
same,GI50,SF-268 CNS,3.91 µM
same,TGI,SF-268 CNS,17.2 µM
same,GI50,SW-620 colon,3.5 µM
same,TGI,SW-620 colon,13.5 µM
same,GI50,HT29 colon,2.59 µM
same,TGI,HT29 colon,9.86 µM
same,GI50,MOLT-4 leukemia,2.32 µM
same,TGI,MOLT-4 leukemia,7.31 µM
same,GI50,M14 melanoma,3.39 µM
same,TGI,M14 melanoma,11.9 µM
same,GI50,CCRF-CEM leukemia,2.3 µM
same,TGI,CCRF-CEM leukemia,7.62 µM
same,GI50,A549 NSCLC,2.9 µM
same,TGI,A549 NSCLC,12.2 µM
same,GI50,OVCAR-4 ovarian,3.23 µM
same,TGI,OVCAR-4 ovarian,14.1 µM
same,GI50,UO-31 renal,1.94 µM
same,TGI,UO-31 renal,7.48 µM
same,GI50,MDA-MB-231 breast,2.75 µM
same,TGI,MDA-MB-231 breast,7.87 µM
same,GI50,SK-MEL-28 melanoma,3.71 µM
same,TGI,SK-MEL-28 melanoma,13.7 µM
same,GI50,NCI/ADR-RES ovarian,2.47 µM
same,TGI,NCI/ADR-RES ovarian,8.91 µM
same,GI50,SF-539 CNS,2.9 µM
same,TGI,SF-539 CNS,8.98 µM
same,GI50,HCC-2998 colon,3.24 µM
same,TGI,HCC-2998 colon,11.4 µM
same,GI50,LOX IMVI melanoma,2.04 µM
same,TGI,LOX IMVI melanoma,4.66 µM
same,GI50,U251 CNS,2.43 µM
same,TGI,U251 CNS,7.51 µM
same,GI50,SR leukemia,1.98 µM
same,TGI,SR leukemia,5.82 µM
same,GI50,OVCAR-5 ovarian,3.19 µM
same,TGI,OVCAR-5 ovarian,12.1 µM
same,GI50,HL-60(TB) leukemia,1.27 µM
same,TGI,HL-60(TB) leukemia,4.43 µM
same,GI50,K-562 leukemia,2.34 µM
same,TGI,K-562 leukemia,18 µM
same,GI50,SN12C renal,2.92 µM
same,TGI,SN12C renal,10.6 µM
same,GI50,OVCAR-8 ovarian,2.73 µM
same,TGI,OVCAR-8 ovarian,11 µM
same,GI50,MDA-MB-435,2.77 µM
same,TGI,MDA-MB-435,10.2 µM
same,GI50,MALME-3M melanoma,2.64 µM
same,TGI,MALME-3M melanoma,7.42 µM
same,GI50,ACHN renal,3.3 µM
same,TGI,ACHN renal,11.2 µM
same,GI50,RPMI-8226 leukemia,1.53 µM
same,TGI,RPMI-8226 leukemia,4.89 µM
same,GI50,UACC-62 melanoma,2.92 µM
same,TGI,UACC-62 melanoma,12.3 µM
same,GI50,PC-3 prostate,1.9 µM
same,TGI,PC-3 prostate,11 µM
same,GI50,NCI-H460 lung,2.27 µM
same,TGI,NCI-H460 lung,7.39 µM
same,GI50,TK-10 renal,3.12 µM
same,TGI,TK-10 renal,9.51 µM
same,GI50,UACC-257 melanoma,2.23 µM
same,TGI,UACC-257 melanoma,6.78 µM
same,GI50,NCI-H522 lung,1.39 µM
same,TGI,NCI-H522 lung,4.01 µM
same,GI50,HOP-92 NSCLC,1.86 µM
same,TGI,HOP-92 NSCLC,5.52 µM
same,GI50,CAKI-1 renal,2.28 µM
same,TGI,CAKI-1 renal,7.49 µM
same,GI50,T-47D breast,1.93 µM
same,TGI,T-47D breast,7.5 µM
same,GI50,OVCAR-3 ovarian,3.24 µM
same,TGI,OVCAR-3 ovarian,13.1 µM
same,GI50,HS 578T breast,3.14 µM
same,TGI,HS 578T breast,14.5 µM
same,GI50,NCI-H226 lung,2.67 µM
same,TGI,NCI-H226 lung,8.81 µM
same,GI50,DU-145 prostate,3.87 µM
same,TGI,DU-145 prostate,13.8 µM
same,GI50,786-0 renal,3.08 µM
same,TGI,786-0 renal,11.7 µM
same,GI50,KM12 colon,3.05 µM
same,TGI,KM12 colon,10.8 µM
same,GI50,A498 renal,2.59 µM
same,TGI,A498 renal,7.07 µM
same,GI50,SF-295 CNS,2.34 µM
same,TGI,SF-295 CNS,6.05 µM
same,GI50,SK-OV-3 ovarian,2.24 µM
same,TGI,SK-OV-3 ovarian,5.7 µM
same,GI50,HCT-15 colon,2.69 µM
same,TGI,HCT-15 colon,10.9 µM
same,GI50,SNB-75 CNS,2.24 µM
same,TGI,SNB-75 CNS,14 µM
same,GI50,SNB-19 CNS,3.73 µM
same,TGI,SNB-19 CNS,15.2 µM
same,GI50,BT-549 breast,2.86 µM
same,TGI,BT-549 breast,9.06 µM
same,GI50,IGROV1 ovarian,3.28 µM
same,TGI,IGROV1 ovarian,15.1 µM
same,GI50,EKVX NSCLC,2.87 µM
same,TGI,EKVX NSCLC,12.4 µM
same,GI50,HOP-62 NSCLC,2.98 µM
same,TGI,HOP-62 NSCLC,9.87 µM
